Reference: the CombiSolv-Exp solvation set (Vermeire and Green 2021)

Test: solvent given as SMILES

C=C(C)C(=C)C
Conditions | solvation free energy, 298 K [kcal/mol]
in CN1CCCC1=O | -3.55
in CN(C)C=O | -3.53
in O | 0.4
in OCCO | -1.73
in OCCOCCO | -2.47
in OCCOCCOCCO | -2.49

CC(=O)Oc1ccccc1C(=O)O
Conditions | solvation free energy, 298 K [kcal/mol]
in C1CCOC1 | -14.3
in C1COCCO1 | -14.1
in CC(=O)CC(C)C | -13.2
in CC(=O)OC(C)C | -13.1
in CC(C)(C)O | -13.7
in CC(C)=O | -14.1
in CC(C)CCO | -13.4
in CC(C)CO | -13.2
in CC(C)O | -13.6
in CC(C)OC(C)C | -12.4
in CCC(C)=O | -13.7
in CCC(C)O | -13.5
in CCCC(=O)OC | -13.1
in CCCC(C)O | -13.3
in CCCCCCCCCCO | -12.9
in CCCCCCCO | -13.1
in CCCCCCO | -13.2
in CCCCCO | -13.3
in CCCCO | -13.4
in CCCCOC(C)=O | -13.1
in CCCO | -13.6
in CCO | -14
in CCOC(C)=O | -13.5
in CCOCC | -13.2
in CO | -14.1
in COC(C)(C)C | -13.2
in COC(C)=O | -13.6

CCCCC(C)CCC (stereo not drawn)
Conditions | solvation free energy, 298 K [kcal/mol]
in O | 3.57

FS(F)(F)(F)(F)F
Conditions | solvation free energy, 298 K [kcal/mol]
in Brc1ccccc1 | 0.67
in C1CCOC1 | 0.05
in C1COCCO1 | 0.52
in CC1COC(=O)O1 | 0.98
in CC#N | 0.25
in CC(=O)N(C)C | 0.76
in CC(C)(C)O | -0.11
in CC(C)=O | -0.07
in CC(C)CC(C)(C)C | -0.47
in CC(C)CO | 0.1
in CCC(C)O | 0.26
in CCCCCC | -0.41
in CCCCCCC | -0.32
in CCCCCCCC | -0.23
in CCCCCCCCC | -0.16
in CCCCCCCCCC | -0.06
in CCCCCCCCCCC | 0
in CCCCCCCCCCCC | 0.06
in CCCCCCCCCCCCC | 0.12
in CCCCCCCCCCCCCC | 0.15
in CCCCCCCCCCCCCCC | 0.18
in CCCCCCCCCCCCCCCC | 0.22
in CCCCCCCCCCCO | 0.49
in CCCCCCCCCCO | 0.47
in CCCCCCCCCO | 0.43
in CCCCCCCCO | 0.41
in CCCCCCCO | 0.37
in CCCCCCO | 0.34
in CCCCCO | 0.29
in CCCCO | 0.26
in CCCO | 0.18
in CCO | 0.14
in CN(C)C=O | 0.83
in CN(C)P(=O)(N(C)C)N(C)C | 0.66
in CNC=O | 1.02
in CO | 0.26
in CS(C)=O | -0.05
in Cc1ccc(C)cc1 | 0.19
in Cc1cccc(C)c1 | 0.19
in Cc1ccccc1C | 0.27
in ClC(Cl)(Cl)Cl | -0.03
in Clc1ccccc1 | 0.35
in N#Cc1ccccc1 | 0.71
in O | 3.04
in O=C1CCCC1 | 0.49
in O=C1CCCCC1 | 0.52

CCCCOC(=O)c1ccccc1C(=O)OCc1ccccc1
Conditions | solvation free energy, 298 K [kcal/mol]
in O | -9.55

O=c1[nH]cc(Br)c(=O)[nH]1
Conditions | solvation free energy, 298 K [kcal/mol]
in O | -18.2

C=CCCC
Conditions | solvation free energy, 298 K [kcal/mol]
in C=CCCCCCCCCCCCCCC | -2.77
in CC#N | -2.5
in CC(=O)N(C)C | -2.35
in CCC#N | -2.86
in CCC(C)=O | -2.88
in CCCC#N | -2.56
in CCCCC(CC)COC(=O)CCCCC(=O)OCC(CC)CCCC | -2.66
in CCCCCCC | -3.15
in CCCCCCCC | -3.1
in CCCCCCCCO | -2.63
in CCCCO | -2.65
in CCCCOC(=O)c1ccccc1C(=O)OCCCC | -2.7
in CCN1CCCC1=O | -2.46
in CCN(CC)C(C)=O | -2.62
in CCNC(C)=O | -2.46
in CCNC=O | -2.26
in CCOC(=O)c1ccccc1C(=O)OCC | -2.33
in CCOC(C)=O | -2.96
in CN1CCCC1=O | -2.25
in CN1CCCCC1=O | -2.41
in CN(C)C=O | -2.32
in CNC(C)=O | -2.22
in CNC=O | -1.98
in COC(C)=O | -2.88
in Cc1ccc(C)cc1 | -3.11
in ClCCCl | -2.86
in Clc1ccccc1 | -3.01
in N#Cc1ccccc1 | -2.61
in O | 1.68
in O=C1CCCCC1 | -2.77
in O=C1CCCO1 | -1.95
in O=CN1CCOCC1 | -1.84
in OCCOCCO | -1.23

O=C=O
Conditions | solvation free energy, 298 K [kcal/mol]
in Brc1ccccc1 | -0.35
in C1CCC2CCCCC2C1 | -0.22
in C1CCCCC1 | -0.32
in C1CCOC1 | -1.12
in C1COCCO1 | -1.16
in C=CCCCC | -0.56
in C=CCCCCCC | -0.45
in C=CCCCCCCCC | -0.35
in CC1COC(=O)O1 | -0.75
in CC(C)(C)O | -0.41
in CC(C)=O | -1.1
in CC(C)CO | -0.37
in CC(C)O | -0.42
in CCC(C)=O | -0.98
in CCC(C)O | -0.33
in CCCCCC | -0.48
in CCCCCCC | -0.41
in CCCCCCCC | -0.35
in CCCCCCCCCC | -0.27
in CCCCCCCCCCCCCCCC | -0.12
in CCCCCCCCCCO | -0.13
in CCCCCCCCO | -0.22
in CCCCO | -0.4
in CCCCOCCO | -0.26
in CCCCOCCOCCO | -0.23
in CCCCOCCOCCOCCO | -0.48
in CCCO | -0.48
in CCO | -0.57
in CCOCCOCCO | -0.51
in CCOCCOCCOCC | -0.69
in CCc1ccccc1 | -0.21
in CN1CCCC1=O | -0.82
in CN(C)C=O | -0.95
in CN(C)P(=O)(N(C)C)N(C)C | -0.9
in CO | -0.85
in COC(=O)CC#N | -0.67
in COC(C)=O | -1.13
in COCCO | -0.65
in COCCOC | -0.86
in COCCOCCO | -0.7
in COCCOCCOC | -0.84
in COCCOCCOCCO | -0.5
in COCCOCCOCCOC | -0.7
in COCCOCCOCCOCCOC | -0.77
in CS(C)=O | -0.69
in Cc1ccc(C)cc1 | -0.45
in Cc1cccc(C)c1 | -0.45
in Cc1ccccc1 | -0.48
in Cc1ccccc1C | -0.43
in ClC(Cl)(Cl)Cl | -0.61
in ClC(Cl)Cl | -0.61
in ClCCCl | -0.78
in ClCCl | -0.68
in Clc1ccccc1 | -0.5
in Nc1ccccc1 | -0.44
in O | 0.11
in O=C1CCCC1 | -0.89
in O=C1CCCCC1 | -0.79
in O=CN1CCOCC1 | -0.71
in OCCCOCCCO | -0.25
in OCCO | -0.17
in OCCOCCO | -0.28
in OCc1ccccc1 | -0.36
in c1ccccc1 | -0.58

COc1cc(C=O)cc(-c2cc(C=O)cc(OC)c2O)c1O
Conditions | solvation free energy, 298 K [kcal/mol]
in CCC(C)=O | -21.9
in Cc1ccccc1 | -19.6
in ClC=CCl | -20.6

CCCCCCCCC(C)=O
Conditions | solvation free energy, 298 K [kcal/mol]
in O | -2.34
